Test results reported in patent publication US20260001872A1, “BENZISOTHIAZOLE COMPOUND AND APPLICATION THEREOF, AND PHARMACEUTICAL COMPOSITION AND APPLICATION THEREOF” (Picomole Therapeutics (Liaoning) Co., Ltd., priority 2022, published 2026).
Several values for one entry are separate records, joined by “and”; a condition that tells them apart may be missing. Identical values can stand only once. Counter-ions that a name gives are not always drawn.

Legend:
[1] = tested on: premature ejaculation model in Wistar rats after PCA induction; test: premature ejaculation model in Wistar rats after PCA induction; assay type: in vivo; conditions: for Actual ejaculation number / First contractive latency / First ejaculation latency / Seminal vesicle basal pressure (mmHg) / Seminal vesicle peak pressure (mmHg) / The number of seminal vesicle contractions: individual rats, within 30 min after PCA induction
Experimental: Male Wistar rats with body weight of about 300 g were subjected to a one-week acclimation period before the experiment began. On the day of the experiment, the animals were anesthetized with intraperitoneal (i.p.) injection of Zoletil 50 at 20 mg/kg combined with xylazine at 8 mg/kg, and then subjected to body temperature maintenance at 37° C. using a thermostatically controlled heating pad. The common carotid artery was exposed and cannulated with a PE50 catheter for real-time monitoring of arterial pressure (systolic blood pressure, diastolic blood pressure, and mean arterial pressure). The seminal vesicle and corpus cavernosum muscle of the animals were exposed. Seminal vesicle pressure and corpus cavernosum electromyographic (EMG) stabilized baseline were recorded for 10 min. In the dapoxetine group, the medications were administrated via tail vein intravenous (i.v.) injection; in the to-be-tested compound group, the to-be-tested compound was administrated orally (in the PE model group, the to-be-tested compound was substituted with vehicles); after 1 min, PCA (5 mg/kg) was intraperitoneally (i.p.) injected to induce the PE model; and recording of seminal vesicle pressure profiles and electromyographic (EMG) activity variations in the bulbocavernosus muscle continued to be performed for 30 min.
• A. The actual ejaculation number and the first ejaculation latency in animals within 30 min • B. The number of seminal vesicle contractions, the first contractive latency, basal pressure, and peak pressure within 30 min
The experimental data was represented by mean±S.E.M. and statistically analyzed by GraphPad Prism 7.0 software. One-way analysis of variance (One-way ANOVA) was used for comparison among multiple groups, and Dunnett't-test was used for statistical analysis in Post hoc test; and the comparison between two groups was statistically analyzed using Student's t-test. P<0.05 indicates a significant difference.

[2] = in vivo; cited from earlier work
[3] = 0.125 mg/kg p.o. + PCA 5 mg/kg i.p.
[4] = 0.5 mg/kg p.o. + PCA 5 mg/kg i.p.
[5] = 2 mg/kg p.o. + PCA 5 mg/kg i.p.
[6] = 2 mg/kg p.o. + PCA 5 mg/kg i.p., listed as A002
[7] = Dapoxetine 2 mg/kg i.v. + PCA 5 mg/kg i.p., hydrochloride
[8] = statistical analysis, PCA-induced model

For `c1ccc2nn(CCCCN3CCN(c4nsc5ccccc45)CC3)nc2c1` [A001], which Actual ejaculation number [1, 3] is on record?
Its Actual ejaculation number is 2 (2×) and 6 (2×) and 1.

And the “First contractive latency” value [1, 3]?
The value was 1278 s and 824 s and 889 s and 1207 s and 1558 s.

And the “First ejaculation latency” value [1, 3]?
Its value is 1456 s and 916 s and 985 s and 1380 s and 1667 s.

What about the “Seminal vesicle basal pressure (mmHg)” value [1, 3] of the same compound?
The value was 5.79 mmHg and 6.18 mmHg and 6.05 mmHg and 4.78 mmHg and 3.89 mmHg.

What about the “Seminal vesicle peak pressure (mmHg)” value [1, 3] of the same compound?
Its value is 13.46 mmHg and 16.77 mmHg and 20.06 mmHg and 11.05 mmHg and 9.81 mmHg.

What about the “The number of seminal vesicle contractions” value (“The number” for short) [1, 3] of the same compound?
Its value is 5 and 9 and 8 and 4 and 3.

And the Actual ejaculation number [1, 4]?
The Actual ejaculation number was 2 (3×) and 0 (2×).

What about the “First contractive latency” value [1, 4] of the same compound?
The value was 1186 s and 1298 s and 1317 s and 1800 s (2×).

What about the “First ejaculation latency” value [1, 4] of the same compound?
Its value is 1256 s and 1382 s and 1477 s and 1800 s (2×).

What about the “Seminal vesicle basal pressure (mmHg)” value [1, 4] of the same compound?
The value was 5.76 mmHg and 5.88 mmHg and 5.79 mmHg and 3.67 mmHg and 3.87 mmHg.

And the “Seminal vesicle peak pressure (mmHg)” value [1, 4]?
Its value is 11.87 mmHg and 10.66 mmHg and 9.08 mmHg and 4.86 mmHg and 5.23 mmHg.

What about the “The number” value [1, 4] of the same compound?
The value was 3 and 4 (2×) and 0 (2×).

What about the Actual ejaculation number [1, 5] of the same compound?
The Actual ejaculation number was 0.

What about the “First ejaculation latency” value [1, 5] of the same compound?
The value was 1800 s.

And the “First contractive latency” value [1, 6]?
Its value is 1568 s and 1800 s (4×).

And the “Seminal vesicle basal pressure (mmHg)” value [1, 6]?
The value was 4.05 mmHg and 4.17 mmHg and 4.86 mmHg and 4.18 mmHg and 3.88 mmHg.

What about the “Seminal vesicle peak pressure (mmHg)” value [1, 6] of the same compound?
Its value is 9.67 mmHg and 6.04 mmHg and 5.18 mmHg and 4.98 mmHg and 5.05 mmHg.

And the “The number” value [1, 6]?
The value was 2 and 0 (4×).

For `CN(C)[C@@H](CCOc1cccc2ccccc12)c1ccccc1` [Dapoxetine, Dapoxetine hydrochloride, reference compound], which bioavailability [2] is on record?
Its bioavailability is 42%.

What about the Actual ejaculation number [1, 7] of the same compound?
Its Actual ejaculation number is 1 (2×) and 0 (2×) and 2.

And the “First contractive latency” value [1, 7]?
The value was 1448 s and 1705 s and 1800 s and 1749 s and 866 s.

And the “First ejaculation latency” value [1, 7]?
Its value is 1558 s and 1800 s (2×) and 1256 s and 967 s.

And the “Seminal vesicle basal pressure (mmHg)” value [1, 7]?
Its value is 5.16 mmHg and 4.97 mmHg and 5.37 mmHg and 5.88 mmHg and 4.96 mmHg.

What about the “Seminal vesicle peak pressure (mmHg)” value [1, 7] of the same compound?
Its value is 6.89 mmHg and 8.1 mmHg and 6.46 mmHg and 6.78 mmHg and 7.03 mmHg.

What about the “The number” value [1, 7] of the same compound?
Its value is 1 (3×) and 0 and 3.

And the “initial seminal vesicle contractive latency compared with the PE model group” value ([1]; P<0.01, P<0.001, FIG. 4)?
The value was “significant increase”.

What about the “contraction number of the corpus cavernosum muscle (conclusion)” value [1, 8] of the same compound?
Its value is “decrease”.

What about the “ejaculation latency (conclusion)” value [1, 8] of the same compound?
Its value is “effectively prolong”.

And the “ejaculation number (conclusion)” value [1, 8]?
The value was “significantly decrease”.

And the “seminal vesicle pressure (conclusion)” value [1, 8]?
The value was “reduce”.
